Measured values as given in patent publication US20230143612A1 (Arbutus Biopharma Corporation, priority 2020, published 2023).

target: PD-L1 His protein / PD-1 Fc protein (Homo sapiens, UniProt Q9NZQ7); assay: HTRF Assay (PD-1/PD-L1 interaction); format: binding; conditions: PD-L1 His 6 nM, PD-1 Fc 6 nM
Method in brief: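 Compounds tested from 20 μM down to 0.001 μM (3-fold) against 6 nM PD-L1 His and 6 nM PD-1 Fc, 15 min room temperature incubation. Detection after 1 h at room temperature with Tb cryptate anti-6HIS and XL665 anti-human IgG reagents (mixture at 0.35 nM and 6.7 nM), HTRF signal.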

Sequence of PD-L1 His protein / PD-1 Fc protein (Q9NZQ7 19-238 limits assumed): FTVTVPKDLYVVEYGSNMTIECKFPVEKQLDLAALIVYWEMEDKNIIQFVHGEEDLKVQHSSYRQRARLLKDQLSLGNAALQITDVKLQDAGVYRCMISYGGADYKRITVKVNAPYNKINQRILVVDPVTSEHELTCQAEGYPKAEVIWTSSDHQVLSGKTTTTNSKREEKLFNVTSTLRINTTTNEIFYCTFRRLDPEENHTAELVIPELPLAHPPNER

Row | Compound | IC50 [nM]
1 | COc1nc(-c2cccc(-c3cccc(-c4ccc5c(c4Cl)CN(C[C@@H]4CCC(=O)N4)CC5)c3Cl)c2Cl)ccc1CNC[C@@H]1CCC(=O)N1 [Example 427, (S)-5-((8-Chloro-7-(2,2′-dichloro-3′-(6-methoxy-5-(((((S)-5-oxopyrrolidin-2-yl)methyl)-amino)-methyl)-pyridin-2-yl)-[1,1′-biphenyl]-3-yl)-3,4-dihydroisoquinolin-2(1H)-yl)methyl)pyrrolidin-2-one] | 5.2
2 | COc1nc(-c2cccc(-c3cccc(-c4ccn5c(=O)c(CNCC6(CO)CC6)cnc5c4)c3Cl)c2Cl)ccc1CNC[C@@H]1CCC(=O)N1 [Example 301, (S)-8-(2,2′-Dichloro-3′-(6-methoxy-5-((((5-oxopyrrolidin-2-yl)methyl)amino)methyl)pyridin-2-yl)-[1,1′-biphenyl]-3-yl)-3-((((1-(hydroxymethyl)cyclopropyl)methyl)amino)methyl)-4H-pyrido[1,2-a]pyrimidin-4-one] | 40
3 | COc1nc(-c2cccc(-c3cccc(-c4ccn5c(=O)c(CNCC(F)(F)F)cnc5c4)c3Cl)c2Cl)ccc1CNC[C@@H]1CCC(=O)N1 [Example 303, 8-[2-Chloro-3-[2-chloro-3-[6-methoxy-5-[[[(2S)-5-oxopyrrolidin-2-yl]methylamino]methyl]-2-pyridyl]phenyl]phenyl]-3-[(2,2,2-trifluoroethylamino)methyl]pyrido[1,2-a]pyrimidin-4-one] | 0.4
4 | COc1nc(-c2cccc(-c3cccc(-c4ccn5c(=O)c(CN6CC[C@H](C(=O)O)C6)cnc5c4)c3Cl)c2Cl)cnc1CNC[C@@H]1CCC(=O)N1 [Example 116, (S)-1-((8-(2,2′-Dichloro-3′-(6-methoxy-5-(((((S)-5-oxopyrrolidin-2-yl)methyl)amino)methyl)pyrazin-2-yl)-[1,1′-biphenyl]-3-yl)-4-oxo-4H-pyrido[1,2-a]pyrimidin-3-yl)methyl)pyrrolidine-3-carboxylic acid] | 0.3
5 | COc1nc(-c2cccc(-c3cccc(-c4ccn5c(=O)c(CNC[C@@H]6CCC(=O)N6)cnc5c4)c3Cl)c2Cl)ccc1CN[C@H]1C[C@H](O)C1 [Example 158, 8-(2,2′-Dichloro-3′-(5-((((1r,3r)-3-hydroxycyclobutyl)amino)methyl)-6-methoxypyridin-2-yl)-[1,1′-biphenyl]-3-yl)-3-(((((S)-5-oxopyrrolidin-2-yl)methyl)amino)methyl)-4H-pyrido[1,2-a]pyrimidin-4-one] | 2
6 | COc1nc(-c2cccc(-c3cccc(-c4ccn5c(=O)c(CN[C@H]6CCOC[C@@H]6O)cnc5c4)c3Cl)c2Cl)ccc1CNC[C@@H]1CCC(=O)N1 [Example 163] | 0.8
7 | COc1nc(-c2cccc(-c3cccc(-c4cnc5cc(CNC[C@@H]6CCC(=O)N6)ccc5c4)c3Cl)c2Cl)ccc1CNC[C@@H]1CCC(=O)N1 [Example 370, (5S)-5-[[[3-[2-Chloro-3-[2-chloro-3-[6-methoxy-5-[[[(2S)-5-oxopyrrolidin-2-yl]methylamino]methyl]-2-pyridyl]phenyl]phenyl]-7-quinolyl]methylamino]methyl]pyrrolidin-2-one] | 580
8 | Cc1c(COc2cc(OCc3cncc(C(N)=O)c3)c(CNCCO)cc2Cl)cccc1-c1cccc(-c2ccn3c(=O)c(CNCCO)cnc3c2)c1 [Example 1, 5-((4-Chloro-2-(((2-hydroxyethyl)amino)methyl)-5-((3′-(3-(((2-hydroxyethyl)amino)methyl)-4-oxo-4H-pyrido[1,2-a]pyrimidin-8-yl)-2-methyl-[1,1′-biphenyl]-3-yl)methoxy)phenoxy)methyl)nicotinamide] | 2.8
9 | COc1nc(-c2cccc(-c3cccc(-c4ccn5c(=O)c(CNC6CC7(CCNC7=O)C6)cnc5c4)c3Cl)c2Cl)ccc1CNC[C@@H]1CCC(=O)N1 (single isomer, unassigned) [Example 249] | 0.6
